Paper PMC3058872 (Archives of biochemistry and biophysics, 2010)

What was measured:
[1] = target: T1, EI^Ntr (Enzyme I^Ntr) (Escherichia coli, UniProt P37177, H356A); assay: intrinsic Trp fluorescence titration; assay type: binding
[2] = target: T1, EI^Ntr (Enzyme I^Ntr); assay: thermal unfolding followed by Trp fluorescence; assay type: binding; conditions: hydrogenated protein, 150 μM PEP, 20 mM Tris-Cl pH 8, 2 mM MgCl2, scan 30 °C/h

T1 sequence (P37177 170-748 H356A limits assumed): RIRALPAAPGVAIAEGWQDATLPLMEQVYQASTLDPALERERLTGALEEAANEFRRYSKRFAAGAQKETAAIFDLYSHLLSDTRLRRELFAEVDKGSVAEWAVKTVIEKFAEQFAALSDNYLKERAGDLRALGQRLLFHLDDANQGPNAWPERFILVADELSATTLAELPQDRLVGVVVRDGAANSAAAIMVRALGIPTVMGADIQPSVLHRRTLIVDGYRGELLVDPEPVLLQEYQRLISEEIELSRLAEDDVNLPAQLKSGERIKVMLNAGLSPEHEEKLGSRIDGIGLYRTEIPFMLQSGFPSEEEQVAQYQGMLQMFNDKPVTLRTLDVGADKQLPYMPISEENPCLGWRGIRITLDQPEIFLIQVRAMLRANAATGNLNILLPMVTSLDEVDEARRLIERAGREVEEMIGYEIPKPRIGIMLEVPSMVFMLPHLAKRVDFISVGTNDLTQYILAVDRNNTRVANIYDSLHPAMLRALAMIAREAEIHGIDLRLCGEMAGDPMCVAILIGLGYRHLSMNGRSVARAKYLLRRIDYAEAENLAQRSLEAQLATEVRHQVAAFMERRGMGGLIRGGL

- Kd [1]: 21 µM
- stabilization due to PEP binding (dTm) [2]: 4.04 °C
Compound: C=C(OP(=O)(O)O)C(=O)O [PEP]
